Patent US20250166176A1, “METHODS AND MATERIALS FOR IMAGING ADIPOSE TISSUE” (CellSight Technologies Inc., priority 2022, published 2025)

Assays:
Format in all cases: in vivo
[1] = test system: BAT and marrow adipose tissue; test: [18F]F-AraG PET imaging after chronic dosing with BRL37344; details: mice, 3 days+1 h prior to imaging
[2] = test system: iBAT; test: [18F]F-AraG PET imaging of iBAT in mice with GBM tumors; details: one GBM mouse with highest neuroinflammation
Description: During our studies into the utility of ^18F-AraG in assessing intracranial T cell infiltration in glioblastoma multiforme (GBM) we made the unexpected and surprising discovery that ^18F-AraG can also image and/or assess the activation of adipose tissue (FIG. 2). Adipose, or fat, tissue (AT) was once considered an inert tissue that primarily existed to store lipids, and was not historically recognized as an important organ in the regulation and maintenance of health. With the rise of obesity and more rigorous research, AT is now recognized as a highly complex metabolic organ involved in a host of important physiological functions, including glucose homeostasis and a multitude of endocrine capabilities. […] The study of AT can provide useful insights in developing strategies to combat these highly prevalent metabolic diseases.
[^18F]F-AraG ability to track stimulated adipocytes allowed observation of activated iBAT in mice with bioluminescently-tagged GBM tumors. The activation occurred at different time points and varied in intensity.

[3] = test system: intrascapular BAT (iBAT); test: [18F]F-AraG and FDG PET imaging of BAT in mice treated with BRL37344, insulin or vehicle

Structure (SMILES) | effect of chronic dosing on [18F]F-AraG signal (in words) [1] | iBAT [18F]F-AraG signal ([2]; OnTx3) | iBAT [18F]F-AraG signal ([2]; PreTx) | [18F]F-AraG uptake in iBAT ([3]; control animals) | [18F]F-AraG uptake in iBAT ([3]; insulin-treated mice) | accumulation of [18F]F-AraG in intrascapular BAT (iBAT) ([3]; mice, BRL37344 administered one hour prior to imaging)
C[C@H](Cc1ccc(OCC(=O)O)cc1)NC[C@H](O)c1cccc(Cl)c1 [BRL37344] | increase in [^18F]F-AraG signal not only in the classical, intrascapular BAT. but also in lumbar spinal cord and proximal tibia | – | – | – | – | –
Nc1nc2c(ncn2[C@@H]2O[C@H](CO)[C@@H](O)[C@@H]2[18F])c(=O)[nH]1 [[^18F]F-AraG, [18F]-F-arabinofuranosyl guanine] | – | 14.92 % ID/g | 1.70 % ID/g | 4.11±0.76 % ID/g | 3.36±0.62 % ID/g | 10.98±1.64 % ID/g
